Data set [1] addresses T1, PI3Kδ (Homo sapiens, UniProt O00329). As to the kind of experiment: anti-FcεR1 induced CD63 expression in human whole blood. In kind it is cell-based. Also on record: endogenous in cells; host or cells: human whole blood (anti-FcεR1 induced CD63). The note with it: whole blood from healthy human subjects; flow cytometry; read-out: EC50 of anti-FcεR1 (PI3Kδ) mediated CD63 expression. Background: Flow cytometry measures light scatter and fluorescence of single cells or particles in a stream.

The nature of data set [2]: Metabolic stability in liver microsomes, rank order across species. The class given is in vitro ADME, rat, human, dog, monkey, mouse. How it is done:
(§1) Pharmacokinetic studies following single-dose and repeat dose administration were performed in mice, rats, dogs, humans and monkeys. Tenalisib plasma concentrations were determined by a validated LC-MS/MS method. The pharmacokinetic profile of tenalisib was evaluated following both oral and intravenous administration. […] In an in vitro study using liver microsomes, the metabolic stability followed a rank order of rat>human>dog>monkey>mouse.
(§2) In in vitro studies using liver microsomes, the metabolic stability of tenalisib followed the rank order of rat>human>dog>monkey>mouse (Table 3).

The nature of data set [3]: Pharmacokinetics, oral bioavailability in rats. In kind it is in vivo. The note with it: rat, plasma. The procedure: as §1
Data set [4] is described as follows: Metabolic stability in liver microsomes, human. In kind it is in vitro ADME.
Text: as §2
(In general: Microsomes from liver hold many membrane-bound enzymes, among them those of drug oxidation.)

A further data set has as its target T2, PI3Kα (Mus musculus, UniProt P42337).
T2 construct: endogenous in cells; host or cells: 3T3 fibroblasts (pAKT)
Nature of the data set: PI3K isoform cell-based assay: PI3K α-mediated phosphorylation of AKT in 3T3 fibroblasts. The following applies: pAKT by PDGF or lysophosphatidic acid in 3T3 fibroblasts.

A short description of data set [5]: In vitro plasma stability, dog plasma. In kind it is in vitro ADME. The following applies: LC-MS/MS. How it is done: In vitro plasma stability studies were performed using rat, dog, monkey and human plasma. The concentration of tenalisib was measured by LC-MS/MS.
In data set [6] the target is T1, PI3Kδ. As to the kind of experiment: PI3K isoform enzyme assay (HTRF), PI3Kδ. In kind it is biochemical. In general terms: TR-FRET usually uses a lanthanide donor and a delayed reading to cut background.
Data set [7] can be described thus: Tissue distribution upon single oral administration. The following applies: single oral administration 10 mg/kg bodyweight; male wistar rats. In kind it is in vivo. How it is done:
Tissue distribution upon single oral administration (10 mg/kg bodyweight) of tenalisib was studied in male wistar rats. The rank order of Cmax and AUC in Wistar rats was liver>kidney>heart>plasma>thymus>spleen>serum>lung>blood>brain.

The target of the next data set is PI3Kγ (Homo sapiens, UniProt P48736). Nature of the data set: fMLP induced CD63 expression in human whole blood. Set-up: endogenous in cells; host or cells: human whole blood (fMLP induced CD63). The note with it: whole blood from healthy human subjects; flow cytometry; read-out: EC50 of fMLP (PI3Kγ) mediated CD63 expression. In kind it is cell-based.
Sequence of PI3Kγ (P48736 whole entry): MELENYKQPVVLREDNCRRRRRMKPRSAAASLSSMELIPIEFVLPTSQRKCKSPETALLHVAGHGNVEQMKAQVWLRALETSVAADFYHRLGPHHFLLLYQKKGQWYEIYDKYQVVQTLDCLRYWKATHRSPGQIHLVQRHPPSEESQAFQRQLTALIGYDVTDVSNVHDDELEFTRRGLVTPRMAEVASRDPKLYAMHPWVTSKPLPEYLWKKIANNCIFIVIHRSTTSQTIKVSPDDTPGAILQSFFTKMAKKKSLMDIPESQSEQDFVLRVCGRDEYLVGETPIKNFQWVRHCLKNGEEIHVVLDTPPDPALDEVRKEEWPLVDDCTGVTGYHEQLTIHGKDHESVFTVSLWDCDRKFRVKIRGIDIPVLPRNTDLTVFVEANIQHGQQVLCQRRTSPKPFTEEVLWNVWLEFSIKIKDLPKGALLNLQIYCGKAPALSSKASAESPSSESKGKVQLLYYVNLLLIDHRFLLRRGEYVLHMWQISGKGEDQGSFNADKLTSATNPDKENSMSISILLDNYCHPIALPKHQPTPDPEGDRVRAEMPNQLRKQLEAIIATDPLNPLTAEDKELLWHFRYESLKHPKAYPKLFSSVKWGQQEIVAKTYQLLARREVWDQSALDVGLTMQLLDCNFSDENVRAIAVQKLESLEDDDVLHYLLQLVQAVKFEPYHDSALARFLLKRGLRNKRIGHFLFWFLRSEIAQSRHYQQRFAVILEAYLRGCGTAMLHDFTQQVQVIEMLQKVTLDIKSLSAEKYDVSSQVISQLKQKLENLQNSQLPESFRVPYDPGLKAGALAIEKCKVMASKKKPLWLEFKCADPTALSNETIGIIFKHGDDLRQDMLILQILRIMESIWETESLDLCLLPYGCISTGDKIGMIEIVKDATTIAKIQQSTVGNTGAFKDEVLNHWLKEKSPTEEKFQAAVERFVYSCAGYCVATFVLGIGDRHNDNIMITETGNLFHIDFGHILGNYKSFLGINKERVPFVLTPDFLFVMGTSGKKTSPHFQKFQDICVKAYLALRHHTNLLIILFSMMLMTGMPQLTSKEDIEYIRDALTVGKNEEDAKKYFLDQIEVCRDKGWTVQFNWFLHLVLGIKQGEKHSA

Molecules are shown by their SMILES. “Also recorded” adds a separate entry of the source. A value given as a limit tells only on which side of the number the result lay.

T1 sequence (O00329 whole entry): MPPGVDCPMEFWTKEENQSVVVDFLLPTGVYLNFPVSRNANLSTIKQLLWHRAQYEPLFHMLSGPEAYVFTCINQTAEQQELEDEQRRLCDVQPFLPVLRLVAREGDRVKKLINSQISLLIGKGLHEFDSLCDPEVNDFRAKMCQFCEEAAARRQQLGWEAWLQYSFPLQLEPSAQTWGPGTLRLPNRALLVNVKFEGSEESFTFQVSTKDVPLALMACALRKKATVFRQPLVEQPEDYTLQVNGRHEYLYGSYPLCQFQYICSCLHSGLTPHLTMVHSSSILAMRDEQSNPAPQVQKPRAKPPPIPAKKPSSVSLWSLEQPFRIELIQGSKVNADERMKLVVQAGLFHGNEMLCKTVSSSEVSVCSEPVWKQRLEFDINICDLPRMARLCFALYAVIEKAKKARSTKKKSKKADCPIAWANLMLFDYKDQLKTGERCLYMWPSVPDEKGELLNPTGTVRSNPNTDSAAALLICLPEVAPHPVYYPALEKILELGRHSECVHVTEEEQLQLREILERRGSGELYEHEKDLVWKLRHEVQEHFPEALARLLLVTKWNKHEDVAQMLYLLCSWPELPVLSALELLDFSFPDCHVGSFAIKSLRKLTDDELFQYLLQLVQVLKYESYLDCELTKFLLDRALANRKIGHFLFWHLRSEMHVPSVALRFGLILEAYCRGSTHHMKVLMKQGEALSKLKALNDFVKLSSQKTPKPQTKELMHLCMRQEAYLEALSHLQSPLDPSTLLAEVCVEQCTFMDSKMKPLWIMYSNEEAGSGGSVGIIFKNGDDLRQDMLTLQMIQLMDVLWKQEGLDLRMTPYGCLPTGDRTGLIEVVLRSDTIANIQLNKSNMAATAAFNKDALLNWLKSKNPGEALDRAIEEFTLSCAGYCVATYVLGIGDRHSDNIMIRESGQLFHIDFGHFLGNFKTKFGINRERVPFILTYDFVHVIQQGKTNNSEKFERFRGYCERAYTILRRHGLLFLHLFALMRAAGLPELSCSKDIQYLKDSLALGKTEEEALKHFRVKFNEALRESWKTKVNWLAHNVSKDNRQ
T1 sequence (P27986 whole entry partner): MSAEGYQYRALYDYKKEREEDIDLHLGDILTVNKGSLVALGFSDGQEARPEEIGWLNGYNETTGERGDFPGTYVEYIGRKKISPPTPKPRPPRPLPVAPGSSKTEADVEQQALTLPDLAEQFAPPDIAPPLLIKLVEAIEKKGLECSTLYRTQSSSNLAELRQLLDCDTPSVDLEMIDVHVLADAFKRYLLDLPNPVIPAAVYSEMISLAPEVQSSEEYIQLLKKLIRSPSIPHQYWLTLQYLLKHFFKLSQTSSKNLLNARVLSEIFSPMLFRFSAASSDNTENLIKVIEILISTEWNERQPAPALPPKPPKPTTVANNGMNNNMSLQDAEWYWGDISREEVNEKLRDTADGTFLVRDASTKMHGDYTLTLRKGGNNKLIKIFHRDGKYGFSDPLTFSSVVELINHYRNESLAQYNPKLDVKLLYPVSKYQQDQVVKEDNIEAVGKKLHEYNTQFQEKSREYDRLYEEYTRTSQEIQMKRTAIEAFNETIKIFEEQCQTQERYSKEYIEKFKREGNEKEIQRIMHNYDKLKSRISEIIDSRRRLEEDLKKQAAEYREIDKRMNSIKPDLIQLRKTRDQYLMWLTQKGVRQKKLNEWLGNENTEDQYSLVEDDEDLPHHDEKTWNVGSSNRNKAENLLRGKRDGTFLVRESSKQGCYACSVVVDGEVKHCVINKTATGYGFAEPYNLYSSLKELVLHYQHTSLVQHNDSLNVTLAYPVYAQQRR
T2 sequence (P42337 whole entry): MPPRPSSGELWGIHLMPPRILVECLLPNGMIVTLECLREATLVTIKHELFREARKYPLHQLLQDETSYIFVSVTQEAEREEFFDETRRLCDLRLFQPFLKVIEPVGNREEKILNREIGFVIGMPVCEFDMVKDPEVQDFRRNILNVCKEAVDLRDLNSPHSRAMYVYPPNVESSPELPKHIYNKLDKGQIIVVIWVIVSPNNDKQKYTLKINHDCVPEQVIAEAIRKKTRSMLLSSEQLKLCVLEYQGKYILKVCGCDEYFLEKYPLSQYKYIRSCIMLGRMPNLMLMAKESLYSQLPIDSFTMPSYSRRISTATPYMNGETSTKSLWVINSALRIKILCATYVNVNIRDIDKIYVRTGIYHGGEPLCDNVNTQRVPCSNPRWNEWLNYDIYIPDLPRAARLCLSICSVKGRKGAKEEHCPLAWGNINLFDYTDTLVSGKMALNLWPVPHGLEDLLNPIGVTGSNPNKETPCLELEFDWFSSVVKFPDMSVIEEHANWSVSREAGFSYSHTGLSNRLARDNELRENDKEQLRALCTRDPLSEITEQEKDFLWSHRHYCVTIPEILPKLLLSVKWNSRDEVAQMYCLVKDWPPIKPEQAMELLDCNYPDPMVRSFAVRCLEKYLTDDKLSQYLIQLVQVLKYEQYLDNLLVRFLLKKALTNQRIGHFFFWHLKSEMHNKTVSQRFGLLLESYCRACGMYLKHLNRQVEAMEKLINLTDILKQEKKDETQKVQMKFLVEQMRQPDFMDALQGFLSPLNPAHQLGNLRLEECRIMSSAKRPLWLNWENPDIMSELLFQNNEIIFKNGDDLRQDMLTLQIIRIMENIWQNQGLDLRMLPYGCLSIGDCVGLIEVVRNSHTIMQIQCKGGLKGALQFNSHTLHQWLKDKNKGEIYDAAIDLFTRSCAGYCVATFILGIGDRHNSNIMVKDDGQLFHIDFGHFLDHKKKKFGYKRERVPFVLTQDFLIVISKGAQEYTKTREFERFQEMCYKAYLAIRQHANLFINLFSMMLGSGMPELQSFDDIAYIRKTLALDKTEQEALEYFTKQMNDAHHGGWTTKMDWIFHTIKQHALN
T2 sequence (P26450 whole entry partner): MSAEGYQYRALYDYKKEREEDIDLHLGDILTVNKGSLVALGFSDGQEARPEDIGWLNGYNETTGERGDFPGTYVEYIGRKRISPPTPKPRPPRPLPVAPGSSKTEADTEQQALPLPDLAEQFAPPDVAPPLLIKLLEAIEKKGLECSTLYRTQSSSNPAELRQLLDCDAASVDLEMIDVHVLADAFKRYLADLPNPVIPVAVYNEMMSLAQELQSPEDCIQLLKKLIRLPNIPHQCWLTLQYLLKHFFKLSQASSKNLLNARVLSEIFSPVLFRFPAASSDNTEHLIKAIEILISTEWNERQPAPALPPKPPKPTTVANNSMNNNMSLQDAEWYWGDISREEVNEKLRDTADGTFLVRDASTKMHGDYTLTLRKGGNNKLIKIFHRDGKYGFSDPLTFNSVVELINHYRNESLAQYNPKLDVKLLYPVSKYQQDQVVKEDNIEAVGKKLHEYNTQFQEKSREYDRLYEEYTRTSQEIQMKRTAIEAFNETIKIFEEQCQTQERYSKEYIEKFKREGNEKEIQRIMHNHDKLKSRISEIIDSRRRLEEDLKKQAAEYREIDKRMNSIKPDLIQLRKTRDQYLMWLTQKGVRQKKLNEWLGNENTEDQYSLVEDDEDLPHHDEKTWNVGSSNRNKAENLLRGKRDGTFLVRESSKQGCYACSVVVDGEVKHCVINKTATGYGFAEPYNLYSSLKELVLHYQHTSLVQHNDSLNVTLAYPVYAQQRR

Take `CC[C@H](Nc1ncnc2[nH]cnc12)c1oc2ccccc2c(=O)c1-c1cccc(F)c1` [Compound A, (S)-2-(1-(9H-purin-6-ylamino)propyl)-3-(3-fluorophenyl)-4H-chromen-4-one]: the values for the EC50 at PI3Kδ [1], on PI3Kα and on PI3Kγ were 0.039 µM, more than 10 µM and 0.0378 µM, respectively. The “metabolic stability rank order” value in data set [2] is “rat>human>dog>monkey>mouse”. The compound also gave a bioavailability in [3] of more than 72.4%. For the same compound, in data set [4], the “% Metabolic Stability” value is listed as 73.9%. For the same compound, the plasma stability entry in data set [5] was “stable”. This compound also gave an IC50 against PI3Kδ [6] (HTRF, 100 μM ATP) of 0.0245 µM. Besides, the “selectivity over the α and β isoforms (enzyme assay)” value at PI3Kδ [6] (PI3K δ/γ versus PI3K α and β, listed as compound of formula (A)) is recorded as “several fold selectivity; also recorded: selective”. The “rank order of Cmax and AUC in tissues” value in [7] is listed as “liver>kidney>heart>plasma>thymus>spleen>serum>lung>blood>brain”.

By EC50 is commonly meant the concentration at which the effect is half-maximal. As a reminder, the bioavailability is dose-corrected exposure relative to a reference, in per cent. Higher therefore signals much systemic uptake. Broadly, the IC50 is the point on the concentration scale where inhibition reaches its midpoint. Read a low IC50 as inhibition by little substance.

For the origin of these results see US20250241923A1, “A DUAL SELECTIVE PI3K DELTA AND GAMMA INHIBITORS AND/OR A SALT-INDUCIBLE KINASE 3 INHIBITOR FOR TREATING SOLID TUMORS” (Incozen Therapeutics Pvt. Ltd, priority 2022, published 2025).
